This passage reports Ki and IC50 results from patent US7425631B2 (Amgen Inc., priority 2003, dated 2008).

The target of the first assay is T1, human bradykinin B1 receptor (Homo sapiens, UniProt P46663).
T1 construct: expressed in transfected cells; host or cells: CHO-d-AQN cells (membranes prepared in-house)
T1 sequence (P46663 1-353): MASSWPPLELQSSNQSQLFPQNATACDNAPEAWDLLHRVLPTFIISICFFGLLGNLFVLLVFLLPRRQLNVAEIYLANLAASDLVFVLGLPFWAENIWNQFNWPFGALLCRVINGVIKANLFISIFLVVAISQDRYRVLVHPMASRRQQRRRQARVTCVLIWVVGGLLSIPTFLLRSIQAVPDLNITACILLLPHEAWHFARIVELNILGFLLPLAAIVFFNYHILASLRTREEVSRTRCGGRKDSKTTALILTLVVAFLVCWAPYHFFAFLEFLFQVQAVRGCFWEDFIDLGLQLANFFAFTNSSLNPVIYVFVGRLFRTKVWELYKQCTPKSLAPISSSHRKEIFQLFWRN
The experiment in a line: Radioligand binding assay for human B1 bradykinin receptor ([3H]des-arg10 kallidin). Conditions: membranes of CHO cells expressing human B1 receptor; read-out: binding Ki's to the hB1 receptor. The procedure:
Preparation of membranes expressing human B1 and human B2 bradykinin receptor. Membranes were prepared from CHO-d^−AQN cells stably transfected with human bradykinin B1 receptor cDNA. For large-scale production of membranes, cells were grown in 100 L suspension culture to 1.0E8 cells/mL then harvested using the Viafuge at continuous centrifugation of 1000 g. For pilot studies, cells were grown in 2 L spinner culture and harvested by centrifugation (1900 g, 10 min, 4° C.). […] The resulting cell lysate was centrifuged (1900 g, 10 min, 4° C.), and the crude particulate fraction isolated by centrifugation (142,000 g, 1 h, 4° C.) of the low-speed supernatant. The resulting pellet was resuspended in ⅓ the original lysis buffer volume, homogenized, and recentrifuged as above. The membrane pellet was resuspended by homogenization in storage buffer (25 mM HEPES, pH 7.4, 3 mM MgCl2, 10% (w/v) sucrose and Complete Protease Inhibitor tablets (EDTA-free)). Single-use aliquots were made and flash-frozen in liquid N2 prior to storage at −80° C.
Radioligand Binding Assay for human B1 and human B2 bradykinin receptor. […] Membranes (50 μL) were added last. […] Nonspecific binding was defined with 2 μM des-Arg^10Leu^9 kallidin. […] The assay mixture was incubated with shaking for 1 hr at RT and then filtered through GF/C plates presoaked in 0.5% polyethyleneimine (Unifilter; Perkin Elmer Life Sciences) using a Filtermate 96-well harvester (Perkin Elmer Life Sciences). […] The plates were sealed and activity read on Topcount (Perkin Elmer Life Sciences) using a count time of 3 min per channel.
Data analysis. Data was analyzed in XLFit with the four-parameter logistic y=A+((B-A)/(1+((C/x)^D))) and fit with the Levenburg-Marquardt algorithm. Raw cpm were converted to percent of control values prior to analysis (POC=((compound cpm−nonspecfic cpm)/(no-compound cpm−nonspecific cpm)*100)). Ki values were determined from the IC50 using the Cheng-Prusoff equation and Kd values determined by direct saturation binding of the radioligands.
As usually defined, the Ki is a dissociation constant, usually derived from enzyme kinetics or from competition with a known ligand. For the compound `O=C(C[C@@H](NS(=O)(=O)c1cc(Cl)cc(Cl)c1)c1ccccc1)NC1CCOc2cc(CN3CCCCC3)ccc21` (stereo in doubt) [Example 1h, 3-(3,5-Dichloro-benzenesulfonylamino)-3-phenyl-N-(7-piperidin-1-ylmethyl-chroman-4-yl)-propionamide], the Ki is under 100 nM.
On the same count and under the same terms, then `O=C(C[C@@H](NS(=O)(=O)c1ccc2ccccc2c1)c1ccccc1)NC1CCOc2cc(CN3CCOCC3)ccc21` (stereo in doubt) [Example 3j, N-(7-Morpholin-4-ylmethyl-chroman-4-yl)-3-(naphthalen-2-yl-sulfonylamino)-3-phenyl-propionamide], with under 100 nM.
With `CN1c2cc(CN3CCCCC3)ccc2C(NC(=O)C[C@@H](NS(=O)(=O)c2ccc3ccccc3c2)c2ccccc2)CS1(=O)=O` (stereo in doubt) [Example 13, 3-(Naphthalen-2-yl-sulfonylamino)-N-(1-methyl-2,2-dioxo-7-piperidin-1-ylmethyl-1,2,3,4-tetrahydro-2λ^6-benzo[c][1,2]thiazin-4-yl)-3-phenyl-propionamide], the Ki is under 100 nM.
For `CN1CCN(Cc2ccc3c(c2)OCCC3NC(=O)C[C@@H](NS(=O)(=O)c2ccc3ccccc3c2)c2ccccc2)CC1` (stereo partly drawn) [Example 1a, N-[7-(4-Methyl-piperazin-1-ylmethyl)-chroman-4-yl]-3-(naphthyl-2-ylsulfonylamino)-3-phenyl-propionamide], the Ki is under 100 nM.
Turning to `O=C(C[C@@H](NS(=O)(=O)c1ccc2ccccc2c1)c1ccccc1)NC1CCOc2cc(CN3CCCC3)ccc21` (stereo partly drawn) [Example 1d, 3-(Naphthalen-2-ylsulfonylamino)-3-phenyl-N-(7-pyrrolidin-1-ylmethyl-chroman-4-yl)-propionamide], the Ki is under 100 nM.
In the case of `O=C(C[C@@H](NS(=O)(=O)c1ccc(Cl)c(Cl)c1)c1ccccc1)NC1CCOc2cc(CN3CCCCC3)ccc21` (stereo partly drawn) [Example 1f, 3-(3,4-Dichloro-benzenesulfonylamino)-3-phenyl-N-(7-piperidin-1-ylmethyl-chroman-4-yl)-propionamide], the Ki is under 100 nM.
Same read-out and setting: with `CC(C)NCc1ccc2c(c1)OCCC2NC(=O)C[C@@H](NS(=O)(=O)c1ccc2ccccc2c1)c1ccccc1` (stereo partly drawn) [Example 3, N-[7-(Isopropylamino-methyl)-chroman-4-yl]-3-(naphthalen-2-ylsulfonylamino)-3-phenyl-propionamide] the figure was under 100 nM.
Consider `CC(C)N(C)Cc1ccc2c(c1)OCCC2NC(=O)C[C@@H](NS(=O)(=O)c1ccc2ccccc2c1)c1ccccc1` (stereo partly drawn) [Example 3b], for which the Ki is under 100 nM.
In the case of `CCN(Cc1ccc2c(c1)OCCC2NC(=O)C[C@@H](NS(=O)(=O)c1ccc2ccccc2c1)c1ccccc1)C(C)(C)C` (stereo partly drawn) [Example 3f, N-{7-[(tert-Butyl-ethyl-amino)-methyl]-chroman-4-yl}-3-(naphthalen-2-yl-sulfonylamino)-3-phenyl-propionamide], the Ki is under 100 nM.
For the compound `C[C@@H]1CC[C@@H](C)N1Cc1ccc2c(c1)OCCC2NC(=O)C[C@@H](NS(=O)(=O)c1ccc2ccccc2c1)c1ccccc1` (stereo partly drawn) [Example 3h, N-[7-(2R, 5R-Dimethyl-pyrrolidin-1-ylmethyl)-chroman-4-yl]-3-(naphthalen-2-yl-sulfonylamino)-3-phenyl-propionamide], the Ki was under 100 nM.
On the same count and under the same terms, then `CCN(CC)Cc1ccc2c(c1)OCCC2NC(=O)C[C@@H](NS(=O)(=O)c1ccc2ccccc2c1)c1ccccc1` (stereo partly drawn) [Example 3l, N-(7-Diethylaminomethyl-chroman-4-yl)-3-(naphthalen-2-yl-sulfonylamino)-3-phenyl-propionamide], with under 100 nM; and `O=C(C[C@@H](NS(=O)(=O)c1ccc2ccccc2c1)c1ccccc1)NC1CCc2c(CN3CCCCC3)cccc21` (stereo partly drawn) [Example 4a, 3-(Naphthalen-2-yl-sulfonylamino)-3-phenyl-N-(4-piperidin-1-ylmethyl-indan-1-yl)-propionamide], with under 100 nM.
Same read-out and setting: then `O=C(C[C@@H](NS(=O)(=O)c1ccc2ccccc2c1)c1ccccc1)NC1CCc2cc(CN3CCCCC3)ccc21` (stereo partly drawn) [Example 5a, 3-(Naphthalen-2-yl-sulfonylamino)-3-phenyl-N-(5-piperidin-1-ylmethyl-indan-1-yl)-propionamide], with under 100 nM.

For the next assay, the target named is T2, human B1 receptor (Homo sapiens, UniProt P46663).
T2 construct: expressed in transfected cells
T2 sequence (P46663 1-353): T1 sequence (P46663 1-353)
The experiment in a line: In vitro assay of human B1 receptor function using calcium flux (aequorin luminescence). Conditions: CHO D-/hB1/Aequorin cells, agonist 20 nM des-Arg10-Kallidin (EC80); read-out: binding IC50's to hB1 receptor function. In kind it is cell-based. The procedure:
Activation of the Gq linked B1 receptor results in an increase in intracellular calcium. […] Aequorin is a 21-kDa photoprotein that forms a bioluminescent complex when linked to the chromophore cofactor coelenterazine.
Following coelenterazine incubation, an automated flash-luminometer platform was used to dispense the B1 antagonist compounds (dissolved in DMSO and diluted with buffer to the desired concentration (final DMSO concentration <1% DMSO)) to the cell plate, a CCD camera situated underneath the cell plate took 12 images of the cell plate at 5 second intervals to determine if there was any agonist activity with the compounds. The hB1 agonist, des-Arg10-Kallidin, was added to the cell plate and another 12 images were recorded to determine the IC50 of the antagonist(s).
In general terms: Calcium flux is commonly read through the fluorescence of an indicator in the cells.
By IC50 is commonly meant the midpoint of a concentration-inhibition curve. In the case of `O=C(C[C@@H](NS(=O)(=O)c1ccc(Cl)c(Cl)c1)c1ccccc1)NC1CCOc2cc(CN3CCCCC3)ccc21` (stereo partly drawn) [Example 1f, 3-(3,4-Dichloro-benzenesulfonylamino)-3-phenyl-N-(7-piperidin-1-ylmethyl-chroman-4-yl)-propionamide], the IC50 was under 10 nM.
On to `O=C(C[C@@H](NS(=O)(=O)c1ccc2ccccc2c1)c1ccccc1)NC1CCc2cc(CN3CCCCC3)ccc21` (stereo partly drawn) [Example 5a, 3-(Naphthalen-2-yl-sulfonylamino)-3-phenyl-N-(5-piperidin-1-ylmethyl-indan-1-yl)-propionamide], for which the IC50 was under 10 nM.
On to `O=C(C[C@@H](NS(=O)(=O)c1cccc(C(F)(F)F)c1)c1ccc(F)cc1)N[C@@H]1CCCc2cc(CNC3CCCC3)ccc21` [n, (3R)-N-((1R)-6-((cyclopentylamino)methyl)-1,2,3,4-tetrahydro-1-naphthalenyl)-3-(4-fluorophenyl)-3-(((3-(trifluoromethyl)phenyl)sulfonyl)-amino)propanamide], for which the half-maximal inhibitory concentration (IC50) is under 10 nM.
For the compound `O=C(C[C@@H](NS(=O)(=O)c1cccc(C(F)(F)F)c1)c1ccc(F)cc1)N[C@@H]1CCCc2cc(CN3CCCC3)ccc21` [o, (3R)-3-(4-fluorophenyl)-N-((1R)-6-(1-pyrrolidinylmethyl)-1,2,3,4-tetrahydro-1-naphthalenyl)-3-(((3-(trifluoromethyl)phenyl)sulfonyl)-amino)propanamide], the IC50 was under 10 nM.
Turning to `O=C(C[C@@H](NS(=O)(=O)c1cccc(C(F)(F)F)c1)c1ccccc1)N[C@@H]1CCCc2cc(CN3CCC(F)(F)CC3)ccc21` [t, (3R)-N-((1R)-6-((4,4-difluoro-1-piperidinyl)methyl)-1,2,3,4-tetrahydro-1-naphthalenyl)-3-phenyl-3-(((3-(trifluoromethyl)phenyl)-sulfonyl)amino)propanamide], the IC50 was under 10 nM.
